This is an account of results in ChEMBL document CHEMBL5120783, “Procyanidins and Phlobatannins from the Twigs of Rosa multiflora and Their Neuroprotective Activity” (J Nat Prod, 2022).

For orientation: IC50 means the point on the concentration scale where inhibition reaches its midpoint.

A short description of series [1]: Cytotoxicity against mouse BV-2 cells assessed as cell viability at 25 uM by MTT assay. The conditions noted are these: read-out: Activity. The series is classed as toxicity, cell-based. For orientation: Formazan colour is commonly taken as a measure of viable cells.
Series [2] deals with BV-2. In words: Anti-neuroinflammatory activity in mouse BV-2 cells assessed as inhibition of LPS-induced NO production. It is filed as functional, cell-based.
For series [3], the system named is C6. In words: Neuroprotective activity in rat C6 cells assessed as NGF secretion level at 25 uM measured after 24 hrs by ELISA. The series is classed as functional. Background: An ELISA detects its analyte on a solid surface through an enzyme-linked reagent.
Series [4] in a line: Cytotoxicity against rat C6 cells assessed as cell viability at 25 uM by MTT assay. It is filed as toxicity, cell-based. The conditions noted are these: read-out: Activity.

Take `COc1cc([C@@H]2Oc3cc(CCCO)cc(O)c3O[C@H]2CO)ccc1O`: in series [1], the viability at 25 µM is 92.4%. In series [2], the concentration for half-maximal inhibition (IC50) came out at 36.9 µM.
Consider `OC[C@H]1O[C@@H](O[C@H]2c3ccc(O)cc3O[C@@H](c3ccc(O)cc3)[C@@H]2O)[C@H](O)[C@@H](O)[C@@H]1O`, for which the Activity in series [3] amounted to 103.8%. Moreover, the viability at 25 µM in series [1] was determined as 98.9%; in series [4], 102%. Further, in series [2], the concentration for half-maximal inhibition (IC50) came to 51.5 µM.
The like results for `COc1cc([C@@H]2Oc3cc(CCCO)cc(O)c3O[C@H]2CO)ccc1O[C@@H]1O[C@H](CO)[C@@H](O)[C@H](O)[C@H]1O` were, in that order, 107.6%, 95.9%, 99.2% and 50.6 µM.
For the molecule `CCCCC/C=C/C(=O)CCc1ccc(O)c(OC)c1` [SHOGAOL], the Activity in series [3] was 118.5%. For the same molecule, the viability at 25 µM in series [4] stood at 116%.
As for `CNC(=N)NCCC[C@H](N)C(=O)O` [TILARGININE], the viability at 25 µM in series [1] was determined as 104%. Besides, in series [2], the IC50 turned out to be 27.2 µM.
